For experiment [1], the system named is PBMCs of pancreatic adenocarcinoma patients. The conditions noted are these: cited from earlier work.
Experiment [2] concerns TAPs (transporters associated with antigen processing). The experiment is described as follows: TAP assay: competition with a fluorescent reference peptide for TAP-dependent translocation into microsomes. It counts as biochemical. The conditions noted are these: competition with fluorescent tracer peptide; microsomes from LCL721 cells; 10 mM ATP mixture; 20 min at 37°C; fluorescence read-out; signal without ATP subtracted; result in words (EC50 values only in Figure 6B). As to the method:
The transport efficiency of target peptides (Supplementary Table 2) into the ER lumen mediated by TAPs was carried out as previously described ([29]) although some modifications were introduced. These include the use of a fluorescent peptide tracer and the use of microsomes rather than Streptolysin O permeabilized cells. Briefly, peptides were dissolved in DMSO and different concentrations were distributed in a final volume of 10 μl DMSO. At the same time, a mixture of 10 mM ATP, 100 mM Tris-HCl pH7.5 and 5 mM MgCl2 and fluorescent tracer peptide was prepared. 60 μl of this mixture was added to the 10 μl competing peptide mixture to a final volume of 70 μl. This was prewarmed to 37°C and 30 μl of pre-warmed microsomes were added. Microsomes were derived from LCL721 cells, as previously described ([29]).
The mixture was incubated for 20 min at 37°C followed by cell lysis with lysis mixture (0.5% TX100, 5 mM MgCl2 in 100 mM Tris-HCl pH7.5) at 4°C. After at least 30 min incubation at 4°C, DNA was pelleted and the supernatant transferred to a new vial including ConA-beads. After at least 30 min incubation on ice, cells were washed four times with lysis mixture and the last time with 100 mM Tris-HCl pH7.5 before transfer to 96 wells plates (Corning) followed by fluorescence measurements in a plate reader. To detect background signals, a sample without competing peptide and ATP was included and fully performed as described above. This signal was subtracted from the detected signal.
To quantify the efficiency of peptide transport into the ER lumen by TAP, we measured the competition between the target peptides and a fluorescent reference peptide for TAP-dependent translocation into free microsomes.

Experiment [3] deals with HLA-A*02:01 complex (Homo sapiens, UniProt P04439, D140Y/D185E/D98H/E176V/E277Q/G131W/G231S/I119V/I121R/I166T/I218V/L300P/L318F/N151K/N90K/P208A/P217A/Q86G/Q94H/R138H/R169H/T345S). The experiment is described as follows: HLA-A*02:01-peptide binding affinity measured with purified HLA-I molecules. The settings on record: cell-free system, values only in Figure 6C. As to the method: The binding affinity between theoretical spliced and non-spliced peptides and HLA-A^*02:01 was predicted using the NetMHCPan 3.0 algorithm ([30]). […] The binding affinity between the synthetic peptides and HLA-A^*02:01 complexes was measured using purified HLA-I molecules, as described elsewhere ([10]).
Once a peptide arrives in the ER lumen, its binding affinity to the specific HLA-I molecule determines whether it will ultimately be presented. Therefore, we measured the binding affinity of the same six peptides previously tested in the TAP assay and the HLA-A^*02:01 complex in a cell-free system utilizing purified HLA-I molecules.

For experiment [4], the system named is Transduced human CD8+ T cells. The settings on record: TCRs isolated from humanized ABabDII mice, transduced into human PBMCs; cited from earlier work. From the text: Our pipeline identifies epitope candidates which shall further be validated by isolating specific CTL clones and their TCRs and using them to confirm that the epitope candidates are produced in cellulo and eventually in vivo. There are several strategies to this end. For example, the KRAS5−6/8−14 spliced epitope candidate here identified has been validated in collaboration with Blankenstein et al. ([56]). Specific TCRs have been isolated from humanized ABabDII mice ([57]), cloned into expressing vectors and transduced into human PBMCs.

As to `CC(C)C[C@H](NC(=O)[C@@H](N)CCCCN)C(=O)N[C@H](C(=O)N[C@H](C(=O)N[C@H](C(=O)NCC(=O)N[C@@H](C)C(=O)N[C@H](C(=O)NCC(=O)N[C@H](C(=O)O)C(C)C)C(C)C)C(C)C)C(C)C)C(C)C` [KRAS5−14 G12V], the “Recognition by PBMCs of pancreatic adenocarcinoma patients” value in experiment [1] is recorded as “recognized by PBMCs”. KLVVVAVGV [peptide #2]: in experiment [2], the “Transport efficiency into the ER lumen mediated by TAPs” value was “not competing with the reference peptide”. Still for that read-out and setting: for YLVVVGAVGV [peptide #1] the value was “transported by TAP as efficiently as the non-spliced epitope candidate”. As to [KL][VVGAVGV] [KRAS5−6/8−14 G12V], the “Transport efficiency into the ER lumen mediated by TAPs” value in experiment [2] was “efficiently transported by TAPs”. In addition, in experiment [3], the “Binding to HLA-A*02:01 complex (result in words)” value is given as “efficiently bind”. Moreover, the “Recognition of the epitope by TCR-transduced human CD8+ T cells” value in experiment [4] is listed as “selectively recognized”.
